Paper PMC9562005, “The Kinetic Mechanism of 3′-5′ Exonucleolytic Activity of AP Endonuclease Nfo from E. coli” (Cells, 2022)

Molecular target: T1, Nfo (AP endonuclease Nfo, endonuclease IV) (Escherichia coli, UniProt P0A6C1)
T1 construct: full-length from pET-11a with nfo gene, expressed in E. coli BL21(DE3); 30 kDa, 3 Zn2+ in active site; the PDB entries are earlier structures of Nfo-DNA complexes
Experiment: stopped-flow 2-aminopurine fluorescence, inhibition of […]'-5' exonuclease
Format: biochemical

Row | SMILES | IC50 [mM]
1 | Cc1cn([C@H]2C[C@H](O)[C@@H](COP(=O)(O)O)O2)c(=O)[nH]c1=O [thymidine monophosphate] | 4.4 ± 0.5
2 | Nc1nc2c(ncn2[C@H]2C[C@H](O)[C@@H](COP(=O)(O)O)O2)c(=O)[nH]1 [2′-deoxyguanosine monophosphate] | 3.2 ± 0.4
